Several values for one entry are separate records, joined by “and”; a condition that tells them apart may be missing. Equal entries are not always repeated. Inconclusive results are not listed.
System: BDF1 mice, colon carcinoma 38 sc, T/C %
Assay: NCI In Vivo Anticancer Drug Screen. Data for tumor model Colon Carcinoma 38 (subcutaneous) in B6D2F1 (BDF1) mice
Conditions: endpoint: median tumor weight (est.), higher = larger tumour
Description: The antitumor activity of compounds was measured in mice bearing transplantable tumors. Survival or tumor size were measured and the results are expressed as the measurement made in the treated group (T) divided by the measurement made in the vehicle treated control group (C). The tumor model used in this assay is Colon Carcinoma 38 (subcutaneous) in B6D2F1 (BDF1) mice

[1] = dose: 12.5 mg/kg/injection, schedule: Q07DX002 (ip), vehicle: saline with Tween-80
[2] = dose: 25.0 mg/kg/injection, schedule: Q07DX002 (ip), vehicle: saline with Tween-80
[3] = dose: 50.0 mg/kg/injection, schedule: Q07DX002 (ip), vehicle: saline with Tween-80
[4] = dose: 100.0 mg/kg/injection, schedule: Q07DX002 (ip), vehicle: saline with Tween-80
[5] = dose: 200.0 mg/kg/injection, schedule: Q07DX002 (ip), vehicle: saline with Tween-80
[6] = dose: 25.0 mg/kg/injection, schedule: Q07DX002 (ip), vehicle: Klucel (hydroxypropylcellulose) (HPC)
[7] = dose: 50.0 mg/kg/injection, schedule: Q07DX002 (ip), vehicle: Klucel (hydroxypropylcellulose) (HPC)
[8] = dose: 100.0 mg/kg/injection, schedule: Q07DX002 (ip), vehicle: Klucel (hydroxypropylcellulose) (HPC)
[9] = dose: 800.0 mg/kg/injection, schedule: Q07DX002 (ip), vehicle: Klucel (hydroxypropylcellulose) (HPC)
[10] = dose: 12.5 mg/kg/injection, schedule: Q07DX002 (ip), vehicle: Klucel (hydroxypropylcellulose) (HPC)
[11] = dose: 200.0 mg/kg/injection, schedule: Q07DX002 (ip), vehicle: Klucel (hydroxypropylcellulose) (HPC)
[12] = dose: 400.0 mg/kg/injection, schedule: Q07DX002 (ip), vehicle: Klucel (hydroxypropylcellulose) (HPC)
[13] = dose: 25.0 mg/kg/injection, schedule: Q07DX002 (ip), vehicle: suspension in saline
[14] = dose: 50.0 mg/kg/injection, schedule: Q07DX002 (ip), vehicle: suspension in saline
[15] = dose: 200.0 mg/kg/injection, schedule: Q07DX002 (ip), vehicle: suspension in saline

CC1(C)OC2C(COC(=O)c3ccc([N+](=O)[O-])cc3)OC(NC(=O)N(CCCl)N=O)C2O1 (stereo unspecified)
T/C (dose: 6.25 mg/kg/injection, schedule: Q07DX002 (ip), vehicle: saline with Tween-80): 62 % of control
T/C [1]: 112 % of control and 123 % of control
T/C (dose: 12.5 mg/kg/injection, schedule: Q07DX003 (ip), vehicle: saline with Tween-80): 106 % of control
T/C [2]: 68 % of control
T/C (dose: 25.0 mg/kg/injection, schedule: Q07DX003 (ip), vehicle: saline with Tween-80): 88 % of control
T/C [3]: 61 % of control and 82 % of control
T/C (dose: 50.0 mg/kg/injection, schedule: Q07DX003 (ip), vehicle: saline with Tween-80): 68 % of control
T/C [4]: 48 % of control and 67 % of control
T/C (dose: 100.0 mg/kg/injection, schedule: Q07DX003 (ip), vehicle: saline with Tween-80): 40 % of control
T/C (dose: 200.0 mg/kg/injection, schedule: Q07DX003 (ip), vehicle: saline with Tween-80): 4 % of control

Cn1c2nc(=O)n(-c3ccccc3)c(=O)c-2nc2c1CCCC2
T/C [2]: 72 % of control
T/C [4]: 70 % of control and 74 % of control
T/C [5]: 90 % of control

C[Si](C)(C)OSc1ccccc1[N+](=O)[O-]
T/C [6]: 118 % of control
T/C [7]: 113 % of control
T/C [8]: 110 % of control
T/C [9]: 86 % of control

COc1ccc2c(NCCCCCCNc3c4ccccc4nc4cc(OC)ccc34)c3ccccc3nc2c1
T/C (dose: 0.31 mg/kg/injection, schedule: Q07DX002 (ip), vehicle: lactic acid): 54 % of control
T/C (dose: 0.32 mg/kg/injection, schedule: Q07DX002 (ip), vehicle: lactic acid): 72 % of control

CC1(C)OC1CS(=O)c1ccccc1 (stereo unspecified)
T/C [2]: 110 % of control
T/C [3]: 105 % of control
T/C [4]: 92 % of control
T/C [5]: 86 % of control
T/C (dose: 400.0 mg/kg/injection, schedule: Q07DX002 (ip), vehicle: saline with Tween-80): 105 % of control
T/C (dose: 800.0 mg/kg/injection, schedule: Q07DX002 (ip), vehicle: saline with Tween-80): 76 % of control

C[PH+](C)C.C[PH+](C)C.[Au]
T/C (dose: 1.25 mg/kg/injection, schedule: Q07DX002 (ip), vehicle: saline): 99 % of control
T/C (dose: 2.5 mg/kg/injection, schedule: Q07DX002 (ip), vehicle: saline): 84 % of control
T/C (dose: 5.0 mg/kg/injection, schedule: Q07DX002 (ip), vehicle: saline): 87 % of control
T/C (dose: 10.0 mg/kg/injection, schedule: Q07DX002 (ip), vehicle: saline): 65 % of control

C=C1C(=O)OCC1(C(=O)OCC)C(=O)OCC
T/C [1]: 42 % of control and 62 % of control and 66 % of control
T/C [3]: 88 % of control

CO[C@@]12[C@@H]3N[C@@H]3CN1C1=C(C(=O)C(NCC3CCCO3)=C(C)C1=O)[C@@H]2COC(N)=O (stereo partly specified)
T/C (dose: 3.0 mg/kg/injection, schedule: Q07DX002 (ip), vehicle: distilled water + Tween-80): 93 % of control
T/C (dose: 6.0 mg/kg/injection, schedule: Q07DX002 (ip), vehicle: distilled water + Tween-80): 69 % of control
T/C (dose: 12.0 mg/kg/injection, schedule: Q07DX002 (ip), vehicle: distilled water + Tween-80): 34 % of control
T/C (dose: 24.0 mg/kg/injection, schedule: Q07DX002 (ip), vehicle: distilled water + Tween-80): 28 % of control

COc1c(CNC(=O)CCl)cc2[nH]c(C)cc2c1CNC(=O)CCl
T/C [10]: 101 % of control
T/C [7]: 98 % of control
T/C [8]: 93 % of control
T/C [11]: 83 % of control
T/C [12]: 111 % of control

CCN(CC)CCOC(=O)/C=C\c1cccc2c(=O)cc(-c3ccccc3)oc12
T/C [8]: 102 % of control
T/C [11]: 65 % of control
T/C [12]: 52 % of control

CCCC(=O)O.CCCC(=O)O.CCCC(=O)O.CCCC(=O)O.[Rh].[Rh]
T/C (dose: 0.25 mg/kg/injection, schedule: Q07DX002 (ip), vehicle: saline + alcohol): 87 % of control
T/C (dose: 0.5 mg/kg/injection, schedule: Q07DX002 (ip), vehicle: saline + alcohol): 76 % of control
T/C (dose: 1.0 mg/kg/injection, schedule: Q07DX002 (ip), vehicle: saline + alcohol): 91 % of control

COc1cc([C@@H]2c3cc4c(cc3[C@@H](OC3OC5CO[C@@H](c6cccs6)OC5C(O)C3O)[C@H]3COC(=O)[C@H]23)OCO4)cc(OC)c1O (stereo partly specified)
T/C (dose: 1.0 mg/kg/injection, schedule: Q07DX002 (ip), vehicle: suspension in saline): 88 % of control
T/C (dose: 2.0 mg/kg/injection, schedule: Q07DX002 (ip), vehicle: suspension in saline): 113 % of control and 100 % of control
T/C (dose: 4.0 mg/kg/injection, schedule: Q07DX002 (ip), vehicle: suspension in saline): 63 % of control and 75 % of control

O=C1OC(=O)[C@H]2[C@@H]1[C@H]1C=C[C@@H]2OC1=O
T/C [13]: 59 % of control
T/C [14]: 65 % of control
T/C (dose: 100.0 mg/kg/injection, schedule: Q07DX002 (ip), vehicle: suspension in saline): 44 % of control
T/C [15]: 62 % of control
T/C (dose: 400.0 mg/kg/injection, schedule: Q07DX002 (ip), vehicle: suspension in saline): 71 % of control
T/C (dose: 800.0 mg/kg/injection, schedule: Q07DX002 (ip), vehicle: suspension in saline): 97 % of control

CCOC(=O)CNC(=O)Sc1ccc(C(C)(C)C)cc1
T/C [6]: 117 % of control and 97 % of control
T/C [8]: 111 % of control and 95 % of control
T/C [11]: 78 % of control and 81 % of control
T/C [12]: 78 % of control and 102 % of control
T/C [9]: 54 % of control

O=C1NC2(CCCCC2)C(=O)N1CCN(CCCl)CCCl
T/C (dose: 8.0 mg/kg/injection, schedule: Q07DX003 (ip), vehicle: Klucel (hydroxypropylcellulose) (HPC)): 60 % of control
T/C (dose: 16.0 mg/kg/injection, schedule: Q07DX003 (ip), vehicle: Klucel (hydroxypropylcellulose) (HPC)): 69 % of control and 88 % of control
T/C (dose: 32.0 mg/kg/injection, schedule: Q07DX003 (ip), vehicle: Klucel (hydroxypropylcellulose) (HPC)): 38 % of control and 62 % of control
T/C (dose: 64.0 mg/kg/injection, schedule: Q07DX003 (ip), vehicle: Klucel (hydroxypropylcellulose) (HPC)): 28 % of control

CS(=O)(=O)[O-].CS(=O)(=O)[O-].NC1CCCCC1N.[Pt+4] (stereo unspecified)
T/C (dose: 0.31 mg/kg/injection, schedule: Q07DX002 (ip), vehicle: dextrose): 71 % of control
T/C (dose: 0.62 mg/kg/injection, schedule: Q07DX002 (ip), vehicle: dextrose): 58 % of control and 82 % of control
T/C (dose: 1.25 mg/kg/injection, schedule: Q07DX002 (ip), vehicle: dextrose): 54 % of control and 56 % of control
T/C (dose: 2.5 mg/kg/injection, schedule: Q07DX002 (ip), vehicle: dextrose): 35 % of control and 45 % of control
T/C (dose: 5.0 mg/kg/injection, schedule: Q07DX002 (ip), vehicle: dextrose): 39 % of control
T/C (dose: 10.0 mg/kg/injection, schedule: Q07DX002 (ip), vehicle: dextrose): 19 % of control

C=CC(=O)NCNC(=O)C=C
T/C (dose: 12.5 mg/kg/injection, schedule: Q07DX002 (ip), vehicle: saline): 164 % of control
T/C (dose: 100.0 mg/kg/injection, schedule: Q07DX002 (ip), vehicle: saline): 100 % of control
T/C (dose: 200.0 mg/kg/injection, schedule: Q07DX002 (ip), vehicle: saline): 89 % of control and 97 % of control
T/C (dose: 400.0 mg/kg/injection, schedule: Q07DX002 (ip), vehicle: saline): 35 % of control

NCCCC(N)(C(=O)O)C(F)F (stereo unspecified)
T/C (dose: 100.0 mg/kg/injection, schedule: Q07DX002 (ip), vehicle: distilled water + alcohol): 124 % of control
T/C (dose: 200.0 mg/kg/injection, schedule: Q07DX002 (ip), vehicle: distilled water + alcohol): 107 % of control
T/C (dose: 400.0 mg/kg/injection, schedule: Q07DX002 (ip), vehicle: distilled water + alcohol): 113 % of control and 124 % of control
T/C (dose: 800.0 mg/kg/injection, schedule: Q07DX002 (ip), vehicle: distilled water + alcohol): 124 % of control
T/C (dose: 1600.0 mg/kg/injection, schedule: Q07DX002 (ip), vehicle: distilled water + alcohol): 123 % of control and 100 % of control

Cc1cc(C)c(-c2cc(O)c(C)cc2O)c(C)c1
T/C [10]: 83 % of control
T/C [7]: 82 % of control

O=CC(=O)c1ccc(O)cc1
T/C (dose: 6.25 mg/kg/injection, schedule: Q07DX002 (ip), vehicle: suspension in saline): 216 % of control
T/C (dose: 12.5 mg/kg/injection, schedule: Q07DX002 (ip), vehicle: suspension in saline): 114 % of control
T/C [13]: 153 % of control
T/C [14]: 153 % of control
T/C [15]: 118 % of control
